Reference: article PMC10584170, “Machine learning-based phenotypic imaging to characterise the targetable biology of Plasmodium falciparum male gametocytes for the development of transmission-blocking antimalarials” (PLOS Pathogens, 2023)
Read-outs that look alike come from different tables or passages of the source.

Columns and labels:
[1] = system: P. falciparum female gametocytes; experiment: P. falciparum Dual Gamete Formation Assay (PfDGFA), female readout (Pfs25-positive female gametes); assay type: cell-based, Plasmodium falciparum NF54; conditions: for Selectivity ratio F: HepG2 Tox50 versus female IC50; for IC50: PfDGFA, 24 h incubation with gametocytes before induction, female gamete readout, read-out: Female IC50; for HitlevelF: number of replicates with >50% inhibition in the female readout
Summary of the method: (§1)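 First, day-14 P. falciparum NF54 gametocytes receive compound for 24 h at 37°C in 1% O2/3% CO2. Next, ookinete medium with Cy3 anti-Pfs25 triggers gametogenesis at 28°C and male exflagellation is imaged. Finally, after 24 h in the dark, Cy3-labelled females are imaged.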

HepG2 cells = experiment: HepG2 cytotoxicity counter-screen; conditions: cytotoxic activity against HepG2 cells
[2] = system: P. falciparum male gametocytes; experiment: P. falciparum Dual Gamete Formation Assay (PfDGFA), male readout (exflagellation); assay type: cell-based, Plasmodium falciparum NF54; conditions: for Selectivity Ratio M: HepG2 Tox50 versus male IC50; for IC50: PfDGFA, 24 h incubation with gametocytes before induction, exflagellation readout, read-out: Male IC50; for HitlevelM: number of replicates with >50% inhibition in the male readout
Summary of the method: as §1

[3] = 2µM, 24h preincubation with gametocytes, average of replicates
[4] = 2µM, 24h preincubation with gametocytes, replicate R1
[5] = 2µM, 24h preincubation with gametocytes, replicate R3
[6] = 2µM, 24h preincubation with gametocytes, replicate R4
[7] = PfDGFA at 2µM, 24h preincubation with gametocytes, average of replicates
[8] = PfDGFA at 2µM, 24h preincubation with gametocytes, replicate R1
[9] = PfDGFA at 2µM, 24h preincubation with gametocytes, replicate R3
[10] = PfDGFA at 2µM, 24h preincubation with gametocytes, replicate R4
[11] = Plasmodium falciparum, PfDGFA at 2µM, 24h preincubation with gametocytes, average of replicates, read-out: Average inhibition female (%)
[12] = Plasmodium falciparum, PfDGFA at 2µM, 24h preincubation with gametocytes, replicate R1, read-out: % inhibition female (individual replicates) R1
[13] = Plasmodium falciparum, PfDGFA at 2µM, 24h preincubation with gametocytes, replicate R2, read-out: % inhibition female (individual replicates) R2
[14] = Plasmodium falciparum, PfDGFA at 2µM, 24h preincubation with gametocytes, replicate R3, read-out: % inhibition female (individual replicates) R3
[15] = Plasmodium falciparum, PfDGFA at 2µM, 24h preincubation with gametocytes, replicate R4, read-out: % inhibition female (individual replicates) R4
[16] = Plasmodium falciparum, PfDGFA at 2µM, 24h preincubation with gametocytes, average of replicates, read-out: Average inhibition male (%)
[17] = Plasmodium falciparum, PfDGFA at 2µM, 24h preincubation with gametocytes, replicate R1, read-out: % inhibition male (individual replicates) R1
[18] = Plasmodium falciparum, PfDGFA at 2µM, 24h preincubation with gametocytes, replicate R2, read-out: % inhibition male (individual replicates) R2
[19] = Plasmodium falciparum, PfDGFA at 2µM, 24h preincubation with gametocytes, replicate R3, read-out: % inhibition male (individual replicates) R3
[20] = Plasmodium falciparum, PfDGFA at 2µM, 24h preincubation with gametocytes, replicate R4, read-out: % inhibition male (individual replicates) R4
[21] = 2µM, 24h preincubation with gametocytes prior to induction of gametogenesis, average of replicates
[22] = 2µM, 24h preincubation with gametocytes prior to induction of gametogenesis, replicate R1
[23] = 2µM, 24h preincubation with gametocytes prior to induction of gametogenesis, replicate R3
[24] = 2µM, 24h preincubation with gametocytes prior to induction of gametogenesis, replicate R4

| SMILES | Selectivity ratio F [1] | IC50 [1] | Tox50 (HepG2 cells) | Selectivity Ratio M [2] | IC50 [2] | Average inhibition female (%) [1, 7] | % inhibition female (individual replicates) R1 [1, 8] | % inhibition female (individual replicates) R3 [1, 9] | % inhibition female (individual replicates) R4 [1, 10] | HitlevelF ([1]; 2µM) | Average inhibition male (%) [2, 7] | % inhibition male (individual replicates) R1 [2, 8] | % inhibition male (individual replicates) R3 [2, 9] | % inhibition male (individual replicates) R4 [2, 10] | HitlevelM ([2]; 2µM) | other results |
| --- | --- | --- | --- | --- | --- | --- | --- | --- | --- | --- | --- | --- | --- | --- | --- | --- |
| CCOC(=O)c1cc2c(CCN3C(=O)c4ccccc4C3=O)cn(C)c2cc1-c1ccncc1 [TCMDC-138099] | 1 | 1560 nM | 1.57 µM | 2.3 | 680 nM |  |  |  |  |  |  |  |  |  |  | Average inhibition female (%) [1, 3]: 93.8%; % inhibition female (individual replicates) R1 [1, 4]: 94.3%; % inhibition female (individual replicates) R3 [1, 5]: 100.9%; % inhibition female (individual replicates) R4 [1, 6]: 92.0%; Average inhibition male (%) [2, 3]: 101.6%; % inhibition male (individual replicates) R1 [2, 4]: 102.0%; % inhibition male (individual replicates) R3 [2, 5]: 99.5%; % inhibition male (individual replicates) R4 [2, 6]: 102.4% |
| COc1cc2nc(NCc3cccc(CNC(=O)c4ccc(-c5ccc(C(C)=O)cc5)cc4)c3)nc(N)c2cc1OC.O=C(O)C(F)(F)F [TCMDC-138177] | 3.13 | 2020 nM | 6.34 µM | 3.88 | 1630 nM | 43.1% | 31.2% | 17.8% | 57.2% | 2 | 65.2% | 54.7% | 22.4% | 95.6% | 3 |  |
| COc1ccc2nc3cc(Cl)ccc3c(NCCCCNc3c4ccc(Cl)cc4nc4ccc(OC)cc34)c2c1 [TCMDC-138218] | 6.16 |  | 2.31 µM | 6.15 |  |  |  |  |  | 4 |  |  |  |  | 4 | inhibition at 2 µM [1, 11]: 88.1%; inhibition at 2 µM [1, 12]: 84.2%; inhibition at 2 µM [1, 13]: 86.6%; inhibition at 2 µM [1, 14]: 91.5%; inhibition at 2 µM [1, 15]: 89.9%; IC50 ([1]; Plasmodium falciparum): 380 nM; inhibition at 2 µM [2, 16]: 73.2%; inhibition at 2 µM [2, 17]: 64.4%; inhibition at 2 µM [2, 18]: 64.9%; inhibition at 2 µM [2, 19]: 77.2%; inhibition at 2 µM [2, 20]: 86.3%; IC50 ([2]; Plasmodium falciparum): 380 nM |
| COc1ccc(N2CCN(CCCCNCc3ccc(NC(=O)c4cc(Cl)cc(Cl)c4)cc3)CC2)c(OC)c1 [TCMDC-138226] | 1.04 | 5220 nM | 5.4 µM | 3.29 | 1640 nM | 28.5% | 20.8% | 39.5% | 12.9% | 0 | 83.1% | 85.0% | 71.2% | 96.9% | 4 |  |
| CN(C)CCNCc1ccc(-c2ccc3c(Nc4ccc(Cl)cc4F)ccnc3c2)o1 [TCMDC-138391] | 2.31 | 5590 nM | 12.91 µM | 7.38 | 1750 nM |  |  |  |  |  |  |  |  |  |  | Average inhibition female (%) [1, 21]: 37.2%; % inhibition female (individual replicates) R1 [1, 22]: 39.6%; % inhibition female (individual replicates) R3 [1, 23]: 32.6%; % inhibition female (individual replicates) R4 [1, 24]: 31.7%; HitlevelF ([1]; 2µM, 24h preincubation): 0; Average inhibition male (%) [2, 21]: 55.2%; % inhibition male (individual replicates) R1 [2, 22]: 62.6%; % inhibition male (individual replicates) R3 [2, 23]: 53.9%; % inhibition male (individual replicates) R4 [2, 24]: 79.6%; HitlevelM ([2]; 2µM, 24h preincubation): 3 |
| CN(C)CCN(C)Cc1ccc(-c2ccc3c(Nc4ccc(Oc5ccccc5)cc4)ccnc3c2)o1 [TCMDC-138400] | 0.72 | 4780 nM | 3.45 µM | 3.65 | 940 nM |  |  |  |  |  |  |  |  |  |  | Average inhibition female (%) [1, 3]: 65.3%; % inhibition female (individual replicates) R1 [1, 4]: 57.3%; % inhibition female (individual replicates) R3 [1, 5]: 63.8%; % inhibition female (individual replicates) R4 [1, 6]: 69.5%; Average inhibition male (%) [2, 3]: 97.6%; % inhibition male (individual replicates) R1 [2, 4]: 97.3%; % inhibition male (individual replicates) R3 [2, 5]: 97.8%; % inhibition male (individual replicates) R4 [2, 6]: 99.6% |
| CC(C)S(=O)(=O)N1CCN(Cc2ccc3c(c2)nc(NC(=O)c2ccsc2)n3C[C@H](O)c2ccccc2)CC1 [TCMDC-138569] | 0.85 |  | 8.48 µM | 20.83 |  |  |  |  |  | 0 |  |  |  |  | 4 | inhibition at 2 µM [1, 11]: 9.7%; inhibition at 2 µM [1, 12]: 10.7%; inhibition at 2 µM [1, 13]: -0.7%; inhibition at 2 µM [1, 14]: -17.5%; inhibition at 2 µM [1, 15]: 46.4%; IC50 ([1]; Plasmodium falciparum): > 10000 nM; inhibition at 2 µM [2, 16]: 67.3%; inhibition at 2 µM [2, 17]: 77.8%; inhibition at 2 µM [2, 18]: 73.7%; inhibition at 2 µM [2, 19]: 62.3%; inhibition at 2 µM [2, 20]: 55.6%; IC50 ([2]; Plasmodium falciparum): 410 nM |
| CN1CCN(CCCNCc2ccc(Nc3nccc(Nc4ccc(Oc5ccccc5)cc4)n3)cc2)CC1 [TCMDC-138621] | 1.14 | 6880 nM | 7.88 µM | 4.45 | 1770 nM | 16.4% | 12.8% | 8.2% | 31.4% | 0 | 76.4% | 65.3% | 52.8% | 96.9% | 4 |  |
